Activity calls are given as the source filed them.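 The calls were made as follows: active = compounds giving half or more protection of infected cells from virus-caused growth loss, again on retest; inactive = the rest.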 Where a SMILES comes first, the peptide text is derived from it.
Tested on: CEM cells HIV-1 protection, formazan growth assay
Assay: NCI AIDS Antiviral Assay
Conditions: for IC50: measured here: growth of uninfected CEM cells
Method in brief: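 Steps: treat uninfected and HIV-1-infected human CEM cells at five drug levels; quantify growth by soluble formazan; retest any compound reaching 50% protection; classify actives from the retest.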

SMILES	EC50	IC50	outcome
CCN1C(=O)/C(=C\c2coc3ccccc3c2=O)SC1=S	> 0.813 µM	> 0.813 µM	–
CC(=O)CCCC(CC(C)O)[Si](C)(C)C (stereo not drawn)	> 1070 µM	562 µM	–
CN1Cc2ccccc2C2(COc3ccccc3C2=O)C1 (stereo not drawn)	–	–	inactive
CCC1CCc2c(OC)ccc(OCC(=O)O)c2C1=O (stereo not drawn)	–	–	inactive
O=S1(=O)C[C@H](NCc2ccccc2)[C@H](NCc2ccccc2)C1	> 200 µM	107 µM	–
Cc1cc(=O)[nH]c(NNC(C#N)c2ccccc2O)n1 (stereo not drawn)	> 182 µM	0.38 µM	–
CSc1nc2c(=O)n(-c3ccccc3)c(=S)n(-c3ccccc3)c2s1	> 200 µM	117 µM	–
Nc1nnc(Cc2ccccc2[N+](=O)[O-])c(=O)[nH]1	> 29.5 µM	> 29.5 µM	–
CCOc1ccc(N2CC(=O)N3CCCCN3C(=O)C2)cc1	> 200 µM	> 200 µM	–
Cn1cnc2[nH]c(=O)n(O)c(=O)c21	> 200 µM	35.5 µM	–
CC(=O)Oc1c(C)cc(-c2cc(C)c(OC(C)=O)c(C)c2)cc1C	> 200 µM	55 µM	–
O=C1CSCc2sccc21	> 200 µM	> 200 µM	–
O=c1[nH]c2c(c(=O)[nH]1)SSC2	> 200 µM	0.631 µM	–
COC1(OC)C2(Cl)CC(OC(C)=O)C1(Cl)C(Cl)=C2Cl (stereo not drawn)	> 200 µM	> 100 µM	–
CC1(C)CCC(=O)c2c(O)ccc(O)c21	–	–	inactive
Cc1ccc2c(c1)CC1(Cc3ccccc3C1=O)C2=O (stereo not drawn)	> 200 µM	195 µM	–
CCOC(=O)c1cccn1S(=O)(=O)c1cc(Cl)ccc1NC(=O)CC	6.17 µM	195 µM	–
O=C(O)/C=C/c1ccc(OS(=O)(=O)O)cc1	> 200 µM	> 200 µM	–
N#CC(C#N)=c1ccc(=C2NCC3CCCN23)cc1 (stereo not drawn)	–	–	inactive
CCCCSC(=CC(=O)c1cccc(C(=O)C=C(SCCCC)SCCCC)n1)SCCCC	> 3.72 µM	> 3.72 µM	–
COc1cccc(-n2c3nc(=O)n(C)c(=O)c-3nc3ccccc32)c1	–	–	inactive
CCCCCCCCCCC(c1cc(Cl)c(O)c(C(=O)O)c1)c1cc(Cl)c(O)c(C(=O)O)c1	> 1480 µM	79.4 µM	–

SMILES	EC50	IC50	outcome
CC(C)=CCC[C@@H](C)c1c2[nH]c3ccccc3sc-2c(C)c(=O)c1=O	> 200 µM	4.27 µM	–
CC(C)C(/C=C/c1ccc(Br)cc1)=N\NC(N)=O	> 32.4 µM	> 32.4 µM	–
CCC12CCCN(C1)C(=O)Cc1c([nH]c3ccccc13)C(=O)C2 (stereo not drawn)	> 8.13 µM	> 8.13 µM	–
CCN(N=O)C1C2(CCCC2)NC(=O)C12CCCC2 (stereo not drawn)	–	–	inactive
O=C1NC(=O)C(COCc2ccccc2)C2=C1SCCC2 (stereo not drawn)	> 200 µM	> 200 µM	–
CC(=O)NC(C)(C)C	–	–	inactive
COc1ccc(C)cc(=O)c1O	> 251 µM	14.5 µM	–
CCN(CC)CCNC(=O)c1cn2c(ccc3sc4ccccc4c(=O)c32)n1	> 20 µM	1.1 µM	–
CC(C)[C@@H]1CC[C@]2(COC(=O)CC(C)(C)CC(=O)O)CC[C@]3(C)[C@H](CC[C@@H]4[C@@]5(C)CC[C@H](OC(=O)CC(C)(C)CC(=O)O)C(C)(C)[C@@H]5CC[C@]43C)[C@@H]12	> 200 µM	9.77 µM	–
O=[N+]([O-])c1cccc2nc3ccccc3c(NCCCn3ccnc3[N+](=O)[O-])c12	> 0.2 µM	0.0457 µM	–
CC(C)[C@@H]1OC(=O)[C@@H](C)NC(=O)[C@@H]2CCCN2C1=O (HELM PEPTIDE1{[CC(C)[C@H](O[*:1])C(=O)[*:2]].P.[dA]}$PEPTIDE1,PEPTIDE1,1:R1-3:R2$$$V2.0)	> 200 µM	> 200 µM	–
CCOC(=O)c1c(SCCN2CCOCC2)n(-c2ccccc2)c(=S)n(-c2ccccc2)c1=O	> 27.5 µM	> 27.5 µM	–
CC(NNC(=O)c1ccncc1)c1ccc(Cl)cc1Cl (stereo not drawn)	> 200 µM	132 µM	–
CC1S(=O)C(C)S(=O)C(C)S1=O (stereo not drawn)	–	–	inactive
Cc1c(N)c2ccccc2c(=O)n1C	> 1120 µM	302 µM	–
Cc1ccccc1C1=C(C(=O)Nc2ccc(Cl)c(Cl)c2)NC(=S)NC1N (stereo not drawn)	> 617 µM	> 617 µM	–
C=C1C(=O)OC2CC(C)C(/C=C/C(C)=O)=CCC12 (stereo not drawn)	> 363 µM	56.2 µM	–
COC(OC)C(=O)[C@H]1[C@H](C(=O)OCC2OC(n3cc(C)c(=O)[nH]c3=O)CC2N=[N+]=[N-])C[C@H]2[C@@H]3CCC4=CC(=O)C=C[C@]4(C)[C@H]3[C@@H](O)C[C@@]21C (stereo partly drawn)	0.0331 µM	13.2 µM	–
N#CCCC1C(C#N)C2(Cl)CC1(Cl)C(Cl)=C2Cl (stereo not drawn)	> 200 µM	23.4 µM	–
Oc1ccc(O)c([P+](c2ccccc2)(c2ccccc2)c2ccccc2)c1	> 200 µM	30.2 µM	–
O=c1cc(N=Nc2ccc(Br)cc2)[nH]c(=S)[nH]1	> 200 µM	1.1 µM	–
O=C(O)[C@@H]1CSCN1C(=O)[C@@H]1CCC(=S)N1	> 200 µM	> 200 µM	–

SMILES	EC50	IC50	outcome
CCC1(C)N=C(C(N)=O)c2ncn(N=C(C)C)c2N1 (stereo not drawn)	> 200 µM	> 200 µM	–
CCOC(=O)Cc1csc2nc(-c3ccccc3)nn12	> 200 µM	132 µM	–
COC(=O)C1Cc2cc3c(cc2C1=O)CCC3 (stereo not drawn)	> 200 µM	135 µM	–
S=C1SCN(C(c2ccccc2)c2ccccc2)CN1C(c1ccccc1)c1ccccc1	> 200 µM	4.47 µM	–
S=C(Nc1cccc(-c2ccccc2)c1)Nc1ccc(Br)cn1	> 200 µM	1.17 µM	–
Cc1cc(-c2ccc(N=Nc3c(N)c(C)cc(S(=O)(=O)O)c3N)c(C)c2)ccc1N=Nc1ccc(O)c(C(=O)O)c1	126 µM	> 200 µM	–
Cc1ccc(S(=O)(=O)OCC2CC[C@]3(C)C4CCC5(C)C(CCC5[C@H](C)CCC(=O)O)[C@@H]4CC[C@@H]3C2)cc1 (stereo partly drawn)	> 4.9 µM	> 4.9 µM	–
CCOC(=O)C[n+]1cccc(C2(c3cc4ccccc4[nH]3)OCCO2)c1	> 200 µM	> 200 µM	–
C[Si](C)(CCC(=O)O)O[Si](C)(C)CCC(=O)O	> 646 µM	> 646 µM	–
CC(C)CCOC(=O)NC(Nc1ccc(F)cc1)(C(F)(F)F)C(F)(F)F	–	–	inactive
CC1C2(C)OC(=N)C(C#N)(C(c3ccco3)O2)C1(C#N)C#N (stereo not drawn)	> 200 µM	14.5 µM	–
CNC(=O)c1ccccc1[Se][Se]c1ccccc1C(=O)NC	3.55 µM	11 µM	–
COc1ccc2c(c1O)C13CCN(C)C(C2)C1CCC1(C3)OCCO1 (stereo not drawn)	> 380 µM	204 µM	–
O=C(O)CC1(CC(=O)Nc2nccs2)CCCCC1	> 126 µM	> 126 µM	–
C/C(O)=C(\N=O)C(=O)NCCc1ccccc1	> 288 µM	> 288 µM	–
CCOC(=O)C(=Cc1cccc([N+](=O)[O-])c1)C(=O)OCC	> 89.1 µM	8.91 µM	–
S=C(Nc1ccc2c(c1)oc1ccccc12)c1cccs1	> 200 µM	> 200 µM	–
CCOC(=O)c1c(NS(=O)(=O)c2ccc(C)cc2)sc(C)c1C	> 200 µM	33.9 µM	–
Cc1ccc(NC(=O)COC(=O)c2cccc3c(=O)c4ccccc4[nH]c23)cc1	–	–	inactive
O=C(/C=C\c1ccccc1)Oc1ccc(/C=C2\CCC/C(=C\c3ccc(OC(=O)/C=C\c4ccccc4)cc3)C2=O)cc1	> 100 µM	> 100 µM	–
